From paper PMC5344293, “A phase 1 dose-escalation and expansion study of binimetinib (MEK162), a potent and selective oral MEK1/2 inhibitor” (British Journal of Cancer, 2017)
Several values for one entry are separate records, joined by “and”; a condition that tells them apart may be missing. Equal entries are not always repeated.

Experiments:
advanced solid tumours = test: Tumour response, RECIST version 1.1; type: in vivo, human
Description: Efficacy was assessed through radiologic scans and clinical measurements of disease sites (if applicable), and evaluation of serologic tumour markers in patient blood samples as appropriate for tumour type. Tumour assessments were performed within 21 days before the first dose and then every 6 weeks starting at the end of cycle 2. Tumour response was evaluated by the investigator using Response Evaluation Criteria in Solid Tumours (RECIST) version 1.1 criteria. Tumour marker levels were incorporated into the overall response assessment per RECIST.
All patients who received ⩾1 dose of binimetinib were included in the safety analysis. Patients in the safety analysis who had ⩾1 measurable lesion at baseline and at least 1 post-baseline disease assessment were evaluable for efficacy. Kaplan–Meier estimates of progression-free survival (PFS) and overall survival (OS) were performed for patients in the expansion phase ([Kaplan and Meier, 1958]) using SAS Version 9.2 (SAS Institute Inc., Cary, NC, USA).

purified MEK enzyme = biological target: purified MEK enzyme; parameters: method as in Lee et al, 2010; Woessner et al, 2010; settings: ref Lee et al, 2010, Woessner et al, read-out: half-maximal inhibitory concentration; cited from earlier work
human cancer cell lines = test system: human cancer cell lines; parameters: method as in Lee et al, 2010; settings: subset of cells; particularly active with activating BRAF, NRAS, KRAS mutations; ref Lee et al, 2010; cited from earlier work

Cn1cnc2c(F)c(Nc3ccc(Br)cc3F)c(C(=O)NOCCO)cc21 [binimetinib]
Best response of stable disease, patients (advanced solid tumours): 36% | Objective responses among patients with biliary cancer (advanced solid tumours; 3 of 30 patients with biliary cancer): 10% | Responses in patients with colorectal cancer (advanced solid tumours; KRAS- or BRAF-mutant cohorts): no responses | Objective responses, number of patients (advanced solid tumours; all in patients with biliary cancer): Three | Duration of complete response (advanced solid tumours; biliary cancer): 11.3 months | Duration of partial response (advanced solid tumours; biliary cancer, two patients): 10.2 months and 17.9 months | Objective responses (advanced solid tumours; of 91 patients evaluable for response): 3% | Complete responses, number of patients (advanced solid tumours; patients with biliary cancer): one | Partial responses, number of patients (advanced solid tumours; patients with biliary cancer): two | Median duration of stable disease (advanced solid tumours; range, 0.92–11.53 months): 3.94 months | IC50 (purified MEK enzyme): 12 nM | Inhibition of proliferation (human cancer cell lines): potently inhibits
